Patent publication US10570121B2, “Substituted dihydroisoquinolinone compounds” (priority 2014, dated 2020)
Where two headings read alike, the source gives them in different places.

Legend:
Format in all cases: biochemical
EZH2 Mutant Y641N = EZH2 Mutant Y641N (Homo sapiens (Human), UniProt Q15910, Y641N); experiment: EZH2 Mutant Y641N nucleosome assay; conditions: PRC2 4-protein complex 6 nM, 1.5 μM SAM, HeLa oligonucleosomes
WT EZH2 [1] = target: T1, WT EZH2 (Homo sapiens (Human), UniProt Q15910); experiment: WT EZH2 nucleosome assay; conditions: PRC2 4-protein complex 4 nM, 1.5 μM SAM, HeLa oligonucleosomes
T1 sequence (Q15910 whole entry, looked up): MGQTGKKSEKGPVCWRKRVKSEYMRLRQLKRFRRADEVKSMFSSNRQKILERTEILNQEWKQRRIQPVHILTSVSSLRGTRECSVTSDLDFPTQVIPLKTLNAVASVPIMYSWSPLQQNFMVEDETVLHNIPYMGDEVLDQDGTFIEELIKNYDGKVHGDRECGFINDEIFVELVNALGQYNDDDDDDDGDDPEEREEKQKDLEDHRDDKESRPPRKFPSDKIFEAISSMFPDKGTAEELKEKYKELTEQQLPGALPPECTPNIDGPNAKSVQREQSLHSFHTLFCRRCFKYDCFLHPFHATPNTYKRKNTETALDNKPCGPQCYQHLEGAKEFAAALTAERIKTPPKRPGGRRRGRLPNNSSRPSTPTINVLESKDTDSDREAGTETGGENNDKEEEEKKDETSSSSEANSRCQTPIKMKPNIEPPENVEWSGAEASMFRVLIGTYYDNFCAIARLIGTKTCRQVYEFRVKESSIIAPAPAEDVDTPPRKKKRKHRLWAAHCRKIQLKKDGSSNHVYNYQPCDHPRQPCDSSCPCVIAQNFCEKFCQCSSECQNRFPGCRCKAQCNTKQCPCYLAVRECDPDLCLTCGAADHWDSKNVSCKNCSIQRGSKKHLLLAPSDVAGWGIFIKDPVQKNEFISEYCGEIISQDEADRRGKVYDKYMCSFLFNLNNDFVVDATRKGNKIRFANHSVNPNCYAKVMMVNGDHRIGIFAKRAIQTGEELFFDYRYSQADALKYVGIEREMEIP
T1 sequence (O75530 whole entry partner, looked up): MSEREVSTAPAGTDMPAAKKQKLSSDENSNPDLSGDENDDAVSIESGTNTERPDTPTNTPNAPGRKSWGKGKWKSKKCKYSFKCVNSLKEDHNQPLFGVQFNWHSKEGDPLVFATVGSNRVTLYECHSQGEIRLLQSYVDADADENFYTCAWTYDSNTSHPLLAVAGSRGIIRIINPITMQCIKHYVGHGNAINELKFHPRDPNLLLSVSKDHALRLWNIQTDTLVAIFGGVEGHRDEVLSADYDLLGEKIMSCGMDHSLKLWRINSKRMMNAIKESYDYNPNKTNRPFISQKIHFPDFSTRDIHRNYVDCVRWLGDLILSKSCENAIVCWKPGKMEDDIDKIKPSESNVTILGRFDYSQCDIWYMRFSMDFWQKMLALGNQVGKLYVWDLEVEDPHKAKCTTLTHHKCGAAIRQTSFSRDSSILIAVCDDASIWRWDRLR
T1 sequence (Q15022 whole entry partner, looked up): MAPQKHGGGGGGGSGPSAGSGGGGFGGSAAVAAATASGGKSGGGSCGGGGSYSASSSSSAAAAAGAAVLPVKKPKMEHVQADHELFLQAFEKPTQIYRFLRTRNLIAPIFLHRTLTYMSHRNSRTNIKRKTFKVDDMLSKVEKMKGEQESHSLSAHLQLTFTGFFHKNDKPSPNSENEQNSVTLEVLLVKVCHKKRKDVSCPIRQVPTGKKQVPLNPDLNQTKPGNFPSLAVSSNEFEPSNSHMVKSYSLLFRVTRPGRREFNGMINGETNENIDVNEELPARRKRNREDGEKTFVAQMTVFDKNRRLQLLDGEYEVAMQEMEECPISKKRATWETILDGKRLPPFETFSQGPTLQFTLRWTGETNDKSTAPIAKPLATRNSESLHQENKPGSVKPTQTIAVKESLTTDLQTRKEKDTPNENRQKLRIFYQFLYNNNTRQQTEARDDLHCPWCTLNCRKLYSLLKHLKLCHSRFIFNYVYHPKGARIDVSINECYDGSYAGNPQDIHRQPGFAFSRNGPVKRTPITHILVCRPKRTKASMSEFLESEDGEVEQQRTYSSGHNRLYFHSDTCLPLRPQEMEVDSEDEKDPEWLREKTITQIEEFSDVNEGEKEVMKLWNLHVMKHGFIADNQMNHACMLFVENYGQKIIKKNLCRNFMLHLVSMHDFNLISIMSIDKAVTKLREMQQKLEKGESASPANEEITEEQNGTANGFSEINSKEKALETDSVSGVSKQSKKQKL
T1 sequence (Q09028 whole entry partner, looked up): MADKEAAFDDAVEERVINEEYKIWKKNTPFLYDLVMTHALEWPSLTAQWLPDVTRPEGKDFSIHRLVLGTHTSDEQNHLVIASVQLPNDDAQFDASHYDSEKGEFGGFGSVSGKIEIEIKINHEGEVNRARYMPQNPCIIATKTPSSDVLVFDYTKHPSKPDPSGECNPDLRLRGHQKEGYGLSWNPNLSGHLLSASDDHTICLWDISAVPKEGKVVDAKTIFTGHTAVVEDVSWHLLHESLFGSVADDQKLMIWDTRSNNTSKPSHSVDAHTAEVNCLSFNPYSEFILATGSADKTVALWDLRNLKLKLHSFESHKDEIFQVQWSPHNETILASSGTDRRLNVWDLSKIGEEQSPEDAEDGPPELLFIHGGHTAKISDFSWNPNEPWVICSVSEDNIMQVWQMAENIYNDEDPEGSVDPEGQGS
Experimental: The genes for EZH2, EED, SUZ12, and RBBP4 proteins were cloned into pBacPAK9 vectors (Clontech). RBBP4 was FLAG tagged on the N-terminal end. The baculovirus expressions of these proteins were used to co-infect SF9 insect cells. Insect cell pellets were lysed in a buffer containing 25 mM Tris pH8.0, 300 mM NaCl, 0.5 mM TCEP, complete EDTA-free protease inhibitor (Roche), 0.1% NP-40. The supernatant from the lysate was incubated with FLAG® M2 antibody resin (Sigma). The resin was washed on the chromatography column and eluted with 0.2 mg/ml FLAG peptide. The elute was incubated with omnicleave nucleases (Epicentre Technologies) at 4° C. overnight, then concentrated and loaded onto a Superdex 200 (GE Healthcare) column. The Superdex 200 column was eluted with 25 mM Tris pH8.0, 150 mM NaCl, 0.5 mM TCEP. Fractions containing the PRC2 complex were pooled.
A. Compound preparation • 1.
B. Reagent preparation • 1. […] Dilute TCA to 20% in DI water
C. Enzyme reaction • 1. […] Some compounds were tested under high SAM conditions.
D. Data analysis • 1. IC50 values were determined by fitting the data to a 4-parameter IC50 equation using proprietary curve fitting software. • 2. For compounds tested under high SAM conditions, Ki^app values were obtained by fitting the dose response curve to a model for competitive inhibition using proprietary curve fitting software. Preparation of HeLa Oligonucleosomes: Reagents • Cell Pellet: 15 L HeLa S3 (Accelgen)+6 L HeLa S3 (in house) • Mnase (Worthington Biochemicals) Equipment • SW-28 Rotor • Dounce Homogenizer/B Pestle Buffers • Lysis: 20 mM Hepes pH 7.5, 0.25M Sucrose, 3 mM MgCl2, 0.5% Nonidet P-40, 0.5 mM TCEP, 1 Roche Protease Tablet • B: 20 mM Hepes pH7.5, 3 mM MgCl2, 0.5 mM EDTA, 0.5 mM TCEP, 1 Roche Protease Tablet • MSB: 20 mM Hepes pH7.5, 0.4 M NaCl, 1 mM EDTA, 5% v/v Glycerol, 0.5 mM TCEP, 0.2 mM PMSF • LSB: 20 mM Hepes pH7.5, 0.1M NaCl, 1 mM EDTA, 0.5 mM TCEP, 0.2 mM PMSF • NG: 20 mM Hepes pH7.5, 1 mM EDTA, 0.4 m NaCl, 0.2 mM PMSF, 0.5 mM TCEP • Storage: 20 mM Hepes pH7.5, 1 mM EDTA, 10% Glycerol, 0.2 mM PMSF, 0.5 mM TCEP Protocol

WT EZH2 [2] = target: T1, WT EZH2; experiment: WT EZH2 nucleosome assay (10X SAM, high SAM conditions); conditions: 15 uM SAM, Ki app from competitive inhibition fit, read-out: WT EZH2 Nucleosome assay (10X SAM) Ki
[3] = EZH2 Mutant Y641N Nucleosome assay IC50 (μM)
[4] = WT EZH2 Nucleosome assay IC50 (μM)
[5] = read-out: EZH2 Mutant Y641N Nucleosome assay IC50
[6] = read-out: WT EZH2 Nucleosome assay IC50

EZH2 Mutant Y641N, sequence (Q15910 whole entry Y641N, looked up): as the sequence (Q15910 whole entry, looked up) above, with Y641N counted along it
EZH2 Mutant Y641N, sequence (O75530 whole entry partner, looked up): as the sequence (O75530 whole entry partner, looked up) above
EZH2 Mutant Y641N, sequence (Q15022 whole entry partner, looked up): as the sequence (Q15022 whole entry partner, looked up) above
EZH2 Mutant Y641N, sequence (Q09028 whole entry partner, looked up): as the sequence (Q09028 whole entry partner, looked up) above

| SMILES | IC50 (EZH2 Mutant Y641N; [3]) [µM] | IC50 (WT EZH2 [1]; [4]) [µM] | IC50 (EZH2 Mutant Y641N; [5]) [µM] | IC50 (WT EZH2 [1]; [6]) [µM] | Ki (WT EZH2 [2]) [nM] |
| --- | --- | --- | --- | --- | --- |
| Cc1cc(C)c(CN2CCc3c(Cl)cc(C(C)CO)c(Cl)c3C2=O)c(=O)[nH]1 (racemic) [Example 17] | 0.125 | 0.035 | – | – | – |
| CCC(CO)c1cc(Cl)c2c(c1Cl)C(=O)N(Cc1c(C)cc(C)[nH]c1=O)CC2 (racemic) [Example 20] | 0.053 | 0.011 | – | – | – |
| Cc1cc(C)c(CN2CCc3c(Cl)cc(C(C)CN(C)CCO)c(Cl)c3C2=O)c(=O)[nH]1 (racemic) [Example 21] | – | – | 0.109 | 0.015 | – |
| Cc1cc(C)c(CN2CCc3c(Cl)cc(C(C)C4CCN(C(=O)CO)CC4)c(Cl)c3C2=O)c(=O)[nH]1 (racemic) [Example 24] | – | – | 0.008 | 0.004 | – |
| CCC(O)c1cc(Cl)c2c(c1Cl)C(=O)N(Cc1c(C)cc(C)[nH]c1=O)CC2 (racemic) [Example 25] | 0.693 | 0.084 | – | – | – |
| Cc1cc(C)c(CN2CCc3c(Cl)cc(C(CO)C4CCOCC4)c(Cl)c3C2=O)c(=O)[nH]1 (racemic) [Example 31] | 0.006 | 0.004 | – | – | – |
| Cc1cc(C)c(CN2CCc3c(Cl)cc(C(C)C#N)c(Cl)c3C2=O)c(=O)[nH]1 (racemic) [Example 32] | – | – | 1.13 | 0.093 | – |
| Cc1cc(C)c(CN2CCc3c(Cl)cc(C(C)CCO)c(Cl)c3C2=O)c(=O)[nH]1 (racemic) [Example 33] | – | – | 0.07 | 0.012 | – |
| Cc1cc(C)c(CN2CCc3c(Cl)cc([C@H](CO)[C@@H]4CCOC4)c(Cl)c3C2=O)c(=O)[nH]1 (single isomer, unassigned) [Example 2, 5,8-dichloro-2-[(4,6-dimethyl-2-oxo-1,2-dihydropyridin-3-yl)methyl]-7-{(1R*)-2-hydroxy-1-[(3S*)-tetrahydrofuran-3-yl]ethyl}-3,4-dihydroisoquinolin-1(2H)-one] | 0.004 | 0.002 | – | – | – |
| Cc1cc(C)c(CN2CCc3c(Cl)cc([C@@H](CO)[C@H]4CCOC4)c(Cl)c3C2=O)c(=O)[nH]1 (single isomer, unassigned) [Example 3, 5,8-dichloro-2-[(4,6-dimethyl-2-oxo-1,2-dihydropyridin-3-yl)methyl]-7-{(1S*)-2-hydroxy-1-[(3R*)-tetrahydrofuran-3-yl]ethyl}-3,4-dihydroisoquinolin-1(2H)-one] | – | 0.066 | – | – | – |
| COC(CO)c1cc(Cl)c2c(c1Cl)C(=O)N(Cc1c(C)cc(C)[nH]c1=O)CC2 (single isomer, unassigned) [Example 10, 5,8-dichloro-2-[(4,6-dimethyl-2-oxo-1,2-dihydropyridin-3-yl)methyl]-7-(2-hydroxy-1-methoxyethyl)-3,4-dihydroisoquinolin-1(2H)-one] | – | – | 1.98 | 0.326 | – |
| Cc1cc(C)c(CN2CCc3c(Cl)cc([C@H](CO)[C@H]4CCCO4)c(Cl)c3C2=O)c(=O)[nH]1 [Example 13, 5,8-dichloro-2-[(4,6-dimethyl-2-oxo-1,2-dihydropyridin-3-yl)methyl]-7-{(1R)-2-hydroxy-1-[(2R)-tetrahydrofuran-2-yl]ethyl}-3,4-dihydroisoquinolin-1(2H)-one] | – | – | 0.018 | – | 3 |
| Cc1cc(C)c(CN2CCc3c(Cl)cc([C@@H](CO)[C@H]4CCCO4)c(Cl)c3C2=O)c(=O)[nH]1 [Example 45] | – | – | 0.345 | – | 103 |
| Cc1cc(C)c(CN2CCc3c(Cl)cc([C@@H](CO)[C@@H]4CCCO4)c(Cl)c3C2=O)c(=O)[nH]1 [Example 46] | – | – | 0.423 | – | 121 |
| Cc1cc(C)c(CN2CCc3c(Cl)cc(C(CO)N4CC[C@H](F)C4)c(Cl)c3C2=O)c(=O)[nH]1 (some centres unmarked) [Example 58] | – | – | 0.513 | – | 57 |
| CC(=C1CNC1)c1cc(Cl)c2c(c1Cl)C(=O)N(Cc1c(C)cc(C)[nH]c1=O)CC2 [Example 74, 7-(1-(azetidin-3-ylidene)ethyl)-5,8-dichloro-2-((4,6-dimethyl-2-oxo-1,2-dihydropyridin-3-yl)methyl)-3,4-dihydroisoquinolin-1(2H)-one] | – | – | 0.051 | – | 5 |
| CC(=C1CN(C(=O)CO)C1)c1cc(Cl)c2c(c1Cl)C(=O)N(Cc1c(C)cc(C)[nH]c1=O)CC2 [Example 75, 5,8-dichloro-2-[(4,6-dimethyl-2-oxo-1,2-dihydropyridin-3-yl)methyl]-7-{1-[1-(hydroxyacetyl)azetidin-3-ylidene]ethyl}-3,4-dihydroisoquinolin-1(2H)-one] | – | – | 0.02 | – | 2 |
| CC(=O)N1CC(=C(C)c2cc(Cl)c3c(c2Cl)C(=O)N(Cc2c(C)cc(C)[nH]c2=O)CC3)C1 [Example 76] | – | – | 0.043 | – | 5 |
| CC(=C1CN(S(C)(=O)=O)C1)c1cc(C)c2c(c1Cl)C(=O)N(Cc1c(C)cc(C)[nH]c1=O)CC2 [Example 77] | – | – | 0.132 | – | 22 |
| COc1cc(C)[nH]c(=O)c1CN1CCc2c(C)cc(C(C)=C3CN(S(C)(=O)=O)C3)c(Cl)c2C1=O [Example 78] | – | – | 0.04 | – | 4 |
| Cc1cc(C)c(CN2CCc3c(Cl)cc(C(F)=C4CN(C(=O)CO)C4)c(Cl)c3C2=O)c(=O)[nH]1 [Example 79] | – | – | 0.133 | – | 17 |
| CC(=C1CCNCC1)c1cc(Cl)c2c(c1Cl)C(=O)N(Cc1c(C)cc(C)[nH]c1=O)CC2 [Example 80] | – | – | 0.007 | – | 1 |
| COc1cc(C)[nH]c(=O)c1CN1CCc2c(Cl)cc([C@H](OC)C3COC3)c(Cl)c2C1=O [Example 81, 5,8-dichloro-2-[(4-methoxy-6-methyl-2-oxo-1,2-dihydropyridin-3-yl)methyl]-7-[(R)-methoxy(oxetan-3-yl)methyl]-3,4-dihydroisoquinolin-1(2H)-one] | – | – | 0.003 | – | 0.2 |
| COc1cc(C)[nH]c(=O)c1CN1CCc2c(Cl)cc([C@@H](OC)C3COC3)c(Cl)c2C1=O [Example 82, 5,8-dichloro-2-[(4-methoxy-6-methyl-2-oxo-1,2-dihydropyridin-3-yl)methyl]-7-[(S)-methoxy(oxetan-3-yl)methyl]-3,4-dihydroisoquinolin-1(2H)-one] | – | – | 0.131 | – | 6 |
| COc1cc(C)[nH]c(=O)c1CN1CCc2c(C)cc([C@H](OC)[C@@H]3CCOC3)c(Cl)c2C1=O [Example 83, 8-chloro-2-[(4-methoxy-6-methyl-2-oxo-1,2-dihydropyridin-3-yl)methyl]-7-{(R)-methoxy[(3R)-tetrahydrofuran-3-yl]methyl}-5-methyl-3,4-dihydroisoquinolin-1(2H)-one] | – | – | 0.004 | – | 0.4 |
| COc1cc(C)[nH]c(=O)c1CN1CCc2c(C)cc([C@@H](OC)[C@H]3CCOC3)c(Cl)c2C1=O [Example 86, 8-chloro-2-[(4-methoxy-6-methyl-2-oxo-1,2-dihydropyridin-3-yl)methyl]-7-{(S)-methoxy[(3S)-tetrahydrofuran-3-yl]methyl}-5-methyl-3,4-dihydroisoquinolin-1(2H)-one] | – | – | 0.637 | – | 61 |
| COC(c1cc(Cl)c2c(c1Cl)C(=O)N(Cc1c(C)cc(C)[nH]c1=O)CC2)C(C)O (centres unmarked) [Example 102] | – | – | 0.178 | – | 18 |
| COc1cc(C)[nH]c(=O)c1CN1CCc2c(Cl)cc([C@H](CO)[C@H]3CCCO3)c(Cl)c2C1=O [Example 105] | – | – | 0.013 | – | 0.8 |
| COc1cc(C)[nH]c(=O)c1CN1CCc2c(Cl)cc([C@H](CO)[C@@H]3CCCO3)c(Cl)c2C1=O [Example 106] | – | – | 0.008 | – | 0.6 |
| COC(c1cc(Cl)c2c(c1Cl)C(=O)N(Cc1c(C)cc(C)[nH]c1=O)CC2)C1CCN(C(=O)CO)C1 (centres unmarked) [Example 113] | – | – | 0.005 | – | 0.8 |
